The results in this text go back to patent US20250026750A1, “SULFOXIMINE-CONTAINING ATR INHIBITOR COMPOUND” (Chia Tai Tianqing Pharmaceutical Group Co., Ltd., priority 2021, published 2025).

The target in one data set is ATR kinase (Homo sapiens (Human), UniProt Q13535). The data set is described as follows: Screening for in vitro inhibitory activity against ATR kinase. In kind it is biochemical. The note with it: 10 μM ATP, 0.1 μM U Light-poly GT substrate. The protocol: A 50 ng/μL ATR stock solution was diluted with a kinase buffer (50 mM HEPES, 10 mM MgCl2, 2 mM DTT, 1 mM EGTA, 0.01% Tween 20), and 6 μL of 1.67×, 0.0835 ng/μL working solution was added to each well (final concentration: 0.05 ng/μL). Different compounds dissolved in DMSO were added to wells using a nanoliter pipettor, such that the final concentrations of the compounds were 1000 nM-0.24 nM and the concentrations in positive wells were 100 nM-0.024 nM (4-fold gradient, 7 concentrations in total). Meanwhile, a blank control well (containing no enzyme) and a negative control well (containing enzyme, with the vehicle DMSO added) were set. After the enzyme had reacted with the compound or vehicle for 30 min, a 5×, 50 μM ATP (final concentration: 10 μM) prepared with the kinase buffer and a 5×, 0.5 μM substrate (final concentration: 0.1 μM, U Light-poly GT) were 1:1 mixed, and the mixture was added to wells at 4 μL/well. After the plate was sealed with a sealing film and the plate was incubated at room temperature for 2 h, 5 μL of 4×, 40 mM EDTA (final concentration: 10 mM) was added to each well. After 5 min of incubation at room temperature, 5 μL of a 4×, 8 nM assay reagent (final concentration: 2 nM, Ep-anti-phospho-tyrosine antibody) was added to each well. The plate was incubated at room temperature for 1 h. Plate reading was performed on a PE instrument (excitation: 320 or 340 nm; emission: 665 nm), and four-parameter fitting and IC50 calculations were performed. The results are shown in Table 1, where A represents IC50<50 nM.

The next data set concerns TMD-8 cells. The experiment in a line: Assay for inhibitory activity on TMD-8 cell proliferation (CCK-8). In kind it is cell-based. The protocol:
TMD-8 cells in a good growth state were collected into a centrifuge tube, adjusted to a cell density of 4×10^4 cells/mL, and inoculated onto a 96-well plate (100 μL/well), and the plate was incubated overnight in a cell incubator. Compounds were added using a nanoliter pipettor such that the final concentrations of the compounds were 10,000 nM-4.57 nM (the addition was performed in duplicate). Meanwhile, a control was set. After another 72 h of incubation in the cell incubator, the assay reagent CCK-8 (manufacturer: Dojindo Laboratories; 10 μL/well) was added. After 4 h of incubation in the cell incubator, absorbance was measured at 450 nm on an Envision microplate reader. A four-parameter analysis was performed, a dose-response curve was fit, and IC50 was calculated. The results are shown in Table 2, where A represents IC50≤200 nM.

Data set [1] can be described thus: In vitro liver microsomal stability. As to conditions: human liver microsomes, NADPH, 37° C. In kind it is in vitro ADME. The procedure: A 200-μL final incubation system contained 20 μL of liver microsomes (protein concentration: 5 mg/mL), 20 μL of NADPH+MgCl2, 2 μL of a substrate, and 158 μL of PBS buffer. The proportion of the organic solvent was 1%. The assay was performed in duplicate (0.2 mL each) for each species. A 180-μL mixture of substrate and enzyme was prepared in each tube. After the mixture and NADPH were pre-incubated at 37° C. for 5 min, 20 μL of NADPH+MgCl2 was added and mixed. 50-μL samples were taken at 0, 15 and 60 min, and the reactions were stopped using ice-cold acetonitrile containing an internal standard.
50-μL incubated samples were taken, and 300 μL of internal standard-containing acetonitrile was added for precipitation. After 5 min of vortexing and shaking, centrifugation (13,000 rpm, 20° C.) was performed for 10 min. 80 μL of the supernatant was added to a 96-well plate and diluted with 80 μL of ultrapure water, and 1 μL of the dilution was injected for LC-MS/MS analysis.

Data set [2] is described as follows: Pharmacokinetic evaluation of compounds in mice. The note with it: ICR mice. In kind it is in vivo. The procedure:
ICR mice, weighing 18-22 g, were randomized into 4 groups of 9 after 3-5 days of acclimatization, and were administered intragastrically (IG) a test compound at a dose of 10 mg/kg and intravenously (IV) a test compound at a dose of 1 mg/kg.
The test animals (ICR mice) were fasted for 12 h before the administration and given food 4 h after the administration, and they were given ad libitum access to water before, during and after the experiment.
Orbital blood samples of about 0.1 mL were collected at 15 min, 30 min, 1 h, 2 h, 3 h, 4 h, 6 h, 8 h, 10 h and 24 h after the intragastric administration. Orbital blood samples of about 0.1 mL were collected at 5 min, 10 min, 30 min, 1 h, 2 h, 4 h, 6 h, 8 h, 10 h and 24 h after the intravenous administration. The blood sample collection was performed at 3-4 time points for each mouse, 3 mice/per time point. The collected whole blood was placed in EDTA-K2-containing centrifuge tubes and stored at 4° C., and, within 1 h, was centrifuged at 4° C. at 4000 rpm for 10 min to separate plasma. All plasma samples were collected and immediately stored at −20° C. for testing. 30 μL of a plasma sample to be tested and a standard-curve sample were collected, and 300 μL of an acetonitrile solution containing an internal standard (20 ng/mL diazepam) was added and well mixed by 5 min of shaking. The mixture was centrifuged at 13,000 rpm for 10 min, and 80 µL of the supernatant was collected and diluted with 80 μL of ultrapure water. After well mixing, 2 μL of the dilution was collected for liquid chromatography-mass spectrometry analysis, and pharmacokinetic parameters were calculated.

[3] abbreviates: Homo sapiens, TMD8, 72 h incubation.
Setting [4] is: plasma, IG 10 mg/kg / IV 1 mg/kg study.

Where only a bound is given, the exact number is not on record here.

Chain of ATR kinase (Q13535 whole entry): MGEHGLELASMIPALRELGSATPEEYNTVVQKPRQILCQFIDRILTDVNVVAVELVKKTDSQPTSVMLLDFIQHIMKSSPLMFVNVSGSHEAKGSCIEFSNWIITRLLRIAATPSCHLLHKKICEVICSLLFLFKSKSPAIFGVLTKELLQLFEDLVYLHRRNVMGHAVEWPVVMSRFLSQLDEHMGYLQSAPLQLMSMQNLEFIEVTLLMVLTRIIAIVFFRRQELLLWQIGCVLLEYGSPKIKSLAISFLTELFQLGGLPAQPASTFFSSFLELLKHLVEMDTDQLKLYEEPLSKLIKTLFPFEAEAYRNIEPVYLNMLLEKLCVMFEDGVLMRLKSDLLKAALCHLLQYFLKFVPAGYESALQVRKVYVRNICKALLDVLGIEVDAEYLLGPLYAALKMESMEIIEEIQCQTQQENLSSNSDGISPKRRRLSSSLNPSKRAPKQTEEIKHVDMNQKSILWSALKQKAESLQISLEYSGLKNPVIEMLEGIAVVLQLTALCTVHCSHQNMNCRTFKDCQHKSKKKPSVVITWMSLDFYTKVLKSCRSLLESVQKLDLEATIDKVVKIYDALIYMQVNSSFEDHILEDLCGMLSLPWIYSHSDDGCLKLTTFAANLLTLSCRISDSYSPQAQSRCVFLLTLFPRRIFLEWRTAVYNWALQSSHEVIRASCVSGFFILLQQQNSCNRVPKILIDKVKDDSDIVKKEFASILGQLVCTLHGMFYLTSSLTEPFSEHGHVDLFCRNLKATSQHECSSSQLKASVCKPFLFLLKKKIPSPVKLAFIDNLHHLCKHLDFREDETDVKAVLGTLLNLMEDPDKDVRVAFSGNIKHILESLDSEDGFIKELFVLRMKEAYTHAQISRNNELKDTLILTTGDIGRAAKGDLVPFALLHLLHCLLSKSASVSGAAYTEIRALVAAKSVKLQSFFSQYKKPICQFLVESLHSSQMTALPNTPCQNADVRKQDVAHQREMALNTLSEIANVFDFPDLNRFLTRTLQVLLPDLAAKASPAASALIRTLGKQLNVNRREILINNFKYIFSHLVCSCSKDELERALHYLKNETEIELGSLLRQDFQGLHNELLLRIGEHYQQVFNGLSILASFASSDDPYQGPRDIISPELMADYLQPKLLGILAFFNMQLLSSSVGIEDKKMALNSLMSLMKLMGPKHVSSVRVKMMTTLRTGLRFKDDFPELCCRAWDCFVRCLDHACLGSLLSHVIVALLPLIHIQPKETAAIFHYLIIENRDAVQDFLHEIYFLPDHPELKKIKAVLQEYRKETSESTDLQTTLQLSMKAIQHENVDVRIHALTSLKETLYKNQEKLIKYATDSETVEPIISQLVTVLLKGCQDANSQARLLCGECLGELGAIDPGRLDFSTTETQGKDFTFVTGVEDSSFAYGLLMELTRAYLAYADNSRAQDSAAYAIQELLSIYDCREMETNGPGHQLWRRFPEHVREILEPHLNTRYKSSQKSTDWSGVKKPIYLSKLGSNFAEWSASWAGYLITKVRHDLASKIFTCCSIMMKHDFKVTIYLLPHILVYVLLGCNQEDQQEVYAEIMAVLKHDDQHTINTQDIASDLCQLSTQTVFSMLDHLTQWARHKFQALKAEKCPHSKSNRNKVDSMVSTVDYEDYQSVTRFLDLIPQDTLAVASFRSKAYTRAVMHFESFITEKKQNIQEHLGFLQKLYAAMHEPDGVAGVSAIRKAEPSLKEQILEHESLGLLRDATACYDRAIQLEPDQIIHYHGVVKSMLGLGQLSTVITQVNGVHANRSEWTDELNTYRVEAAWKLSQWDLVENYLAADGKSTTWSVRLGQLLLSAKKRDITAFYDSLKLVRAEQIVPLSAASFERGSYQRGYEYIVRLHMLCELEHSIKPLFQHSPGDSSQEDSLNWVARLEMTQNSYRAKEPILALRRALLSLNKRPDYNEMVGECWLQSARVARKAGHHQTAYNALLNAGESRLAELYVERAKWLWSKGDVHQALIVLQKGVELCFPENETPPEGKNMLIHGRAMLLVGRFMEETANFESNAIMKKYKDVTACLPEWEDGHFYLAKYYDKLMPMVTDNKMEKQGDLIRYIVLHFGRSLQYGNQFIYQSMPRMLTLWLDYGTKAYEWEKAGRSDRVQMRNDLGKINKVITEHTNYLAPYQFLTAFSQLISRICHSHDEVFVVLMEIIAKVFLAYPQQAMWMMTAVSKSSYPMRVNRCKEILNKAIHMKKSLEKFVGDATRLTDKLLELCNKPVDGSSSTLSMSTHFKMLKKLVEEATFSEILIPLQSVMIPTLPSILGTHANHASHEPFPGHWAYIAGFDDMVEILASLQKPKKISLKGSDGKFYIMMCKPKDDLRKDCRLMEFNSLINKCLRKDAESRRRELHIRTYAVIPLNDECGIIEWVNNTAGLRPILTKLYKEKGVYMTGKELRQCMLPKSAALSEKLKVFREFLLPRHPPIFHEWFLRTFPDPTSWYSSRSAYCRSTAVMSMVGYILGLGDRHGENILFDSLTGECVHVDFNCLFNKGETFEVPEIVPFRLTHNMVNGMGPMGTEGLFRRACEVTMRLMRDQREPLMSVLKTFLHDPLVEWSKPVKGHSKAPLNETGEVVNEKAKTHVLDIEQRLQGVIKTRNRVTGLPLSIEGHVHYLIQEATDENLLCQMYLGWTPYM
Chain of ATR kinase (Q8WXE1 whole entry partner): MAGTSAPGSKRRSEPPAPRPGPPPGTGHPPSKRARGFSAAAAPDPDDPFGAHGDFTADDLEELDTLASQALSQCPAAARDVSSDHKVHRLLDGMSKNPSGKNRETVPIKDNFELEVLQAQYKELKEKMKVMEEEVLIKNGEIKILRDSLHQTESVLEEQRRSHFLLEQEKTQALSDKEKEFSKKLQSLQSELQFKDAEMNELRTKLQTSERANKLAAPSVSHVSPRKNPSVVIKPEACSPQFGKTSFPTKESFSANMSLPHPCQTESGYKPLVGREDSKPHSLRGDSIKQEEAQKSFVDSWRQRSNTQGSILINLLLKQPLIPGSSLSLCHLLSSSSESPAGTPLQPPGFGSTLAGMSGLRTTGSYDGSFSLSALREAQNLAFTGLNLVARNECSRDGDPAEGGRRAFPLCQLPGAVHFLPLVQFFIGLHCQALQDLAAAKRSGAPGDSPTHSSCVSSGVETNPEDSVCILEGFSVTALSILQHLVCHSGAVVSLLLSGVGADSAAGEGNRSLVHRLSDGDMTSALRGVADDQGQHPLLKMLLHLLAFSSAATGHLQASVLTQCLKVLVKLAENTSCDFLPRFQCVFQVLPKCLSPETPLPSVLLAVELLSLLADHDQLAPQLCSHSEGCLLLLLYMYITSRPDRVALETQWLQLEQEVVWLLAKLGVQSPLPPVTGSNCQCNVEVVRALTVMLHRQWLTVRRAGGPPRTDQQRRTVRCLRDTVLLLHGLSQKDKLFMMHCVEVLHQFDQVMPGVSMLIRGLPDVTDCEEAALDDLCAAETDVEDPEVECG

Turning to `C[C@@H]1COCCN1c1cc(N=[S@@](C)(=O)c2ccc(F)cc2)c2cnn(-c3ccn[nH]3)c2n1` (single isomer, unassigned) [Compound 14-A], on ATR kinase, the IC50 is under 50 nM.

Take `C[C@@H]1COCCN1c1cc(N=[S@@](C)(=O)C2CCCC2)c2cnn(-c3ccn[nH]3)c2n1` (single isomer, unassigned) [Compound 15-A]: the results for the IC50 against ATR kinase and in the data set on TMD-8 cells (setting [3]) were under 50 nM and at most 200 nM, respectively.

The compound `C[C@@H]1COCCN1c1cc(N=[S@](C)(=O)C2CCC(F)(F)CC2)c2cnn(-c3ccn[nH]3)c2n1` (single isomer, unassigned) [Compound 16-A] registered an IC50 against ATR kinase of under 50 nM.

Consider `C[C@@H]1COCCN1c1cc(N=S(C)(C)=O)c2cnn(-c3ccn[nH]3)c2n1` [Compound 1], for which the IC50 in the data set with TMD-8 cells (setting [3]) is at most 200 nM. Also, in data set [1], the “Human liver microsome (Residual % at 60 min)” value is recorded as 102.05%.

`CCS(=O)(CC)=Nc1cc(N2CCOC[C@H]2C)nc2c1cnn2-c1ccn[nH]1` [Compound 2] registered a 50% inhibitory concentration (IC50) in the data set with TMD-8 cells (setting [3]) of at most 200 nM. Further, the “Human liver microsome (Residual % at 60 min)” value in data set [1] was found to be 85.89%.

On to `C[C@@H]1COCCN1c1cc(N=S2(=O)CCC2)c2cnn(-c3ccn[nH]3)c2n1` [Compound 3], for which the concentration for half-maximal inhibition (IC50) with TMD-8 cells (setting [3]) is at most 200 nM. The “Human liver microsome (Residual % at 60 min)” value in data set [1] is listed as 106.47%.

In the data set with TMD-8 cells (setting [3]), `C[C@@H]1COCCN1c1cc(N=S2(=O)CCCC2)c2cnn(-c3ccn[nH]3)c2n1` [Compound 4] displayed an IC50 of at most 200 nM. In addition, the “Human liver microsome (Residual % at 60 min)” value in data set [1] is given as 96.49%.

Take `C[C@@H]1COCCN1c1cc(N=S2(=O)CCCCC2)c2cnn(-c3ccn[nH]3)c2n1` [Compound 5]: in the data set with TMD-8 cells (setting [3]), the IC50 is at most 200 nM.

As for `C[C@@H]1COCCN1c1cc(N=S2(=O)CCOCC2)c2cnn(-c3ccn[nH]3)c2n1` [Compound 6], the “Human liver microsome (Residual % at 60 min)” value in data set [1] worked out at 94.62%.

`C[C@@H]1COCCN1c1cc(N=[S@](C)(=O)C2CC2)c2cnn(-c3ccn[nH]3)c2n1` [Compound 10-A] came in with an IC50 at ATR kinase of under 50 nM. The “Human liver microsome (Residual % at 60 min)” value in data set [1] was 95.39%. The “IG half-life t1/2” value in data set [2] (intragastric 10 mg/kg) came out at 1.3 h. Besides, in data set [2] (setting [4]), the “Area under plasma concentration-time curve AUC0-last” value turned out to be 13943 ng·h/mL and the “Peak concentration Cmax” value is 4888 ng/mL. Moreover, the “Tissue distribution Vd” value in data set [2] (IG 10 mg/kg / IV 1 mg/kg study) was 0.68 L/kg. Besides, the “Absolute bioavailability F” value in data set [2] (IG 10 mg/kg vs IV 1 mg/kg) was 66%.

For `Cc1cc(-n2ncc3c(N=S(C)(C)=O)cc(N4CCOC[C@H]4C)nc32)[nH]n1` [Compound 13], the concentration for half-maximal inhibition (IC50) on ATR kinase is under 50 nM. Further, the “Human liver microsome (Residual % at 60 min)” value in data set [1] is on record as 108.36%.

Compound `C[C@@H]1COCCN1c1cc(N=[S@@](C)(=O)C2CCCC2)c2cnn(-c3ccn[nH]3)c2n1` [Compound 15-B] came in with an IC50 with TMD-8 cells (setting [3]) of at most 200 nM.

For the compound `C[C@@H]1COCCN1c1cc(N=S(C)(=O)C(C)(C)C)c2cnn(-c3ccn[nH]3)c2n1` (some centres unmarked) [Compound 17], in the data set on TMD-8 cells (setting [3]), the concentration for half-maximal inhibition (IC50) was at most 200 nM.

`Cc1cc(-n2ncc3c(N=[S@@](C)(=O)C4CC4)cc(N4CCOC[C@H]4C)nc32)[nH]n1` [Compound 19-A] displayed an IC50 against ATR kinase of under 50 nM. This compound yielded an IC50 in the data set with TMD-8 cells (72 h incubation) of at most 200 nM. Besides, the “IG half-life t1/2” value in data set [2] (intragastric 10 mg/kg) is recorded as 1.16 h. Moreover, in data set [2] (setting [4]), the “Area under plasma concentration-time curve AUC0-last” value was determined as 5403 ng·h/mL and the “Peak concentration Cmax” value worked out at 2948 ng/mL. The “Tissue distribution Vd” value in data set [2] (IG 10 mg/kg / IV 1 mg/kg study) is given as 4.58 L/kg. Moreover, in data set [2] (IG 10 mg/kg vs IV 1 mg/kg), the “Absolute bioavailability F” value is reported as 88%.

Turning to `Cc1nn(-c2ccn[nH]2)c2nc(N3CCOC[C@H]3C)cc(N=S(C)(C)=O)c12` [Compound 20], the IC50 with TMD-8 cells (setting [3]) was at most 200 nM. The bioavailability in data set [2] (mouse, plasma, oral, IG 10 mg/kg vs IV 1 mg/kg, read-out: Absolute bioavailability F) came to 74%. Besides, in data set [2] (mouse, plasma, po, intragastric 10 mg/kg, read-out: IG half-life t1/2 (converted)), the half-life is 1.93 h. In data set [2] (mouse, plasma, IG 10 mg/kg / IV 1 mg/kg study, read-out: Tissue distribution Vd), the volume of distribution (Vd) is 1.04 L/kg. Also, the AUC(0-t) in data set [2] (mouse, plasma, IG 10 mg/kg / IV 1 mg/kg study, read-out: Area under plasma concentration-time curve AUC0-last) came to 14600 ng·h/mL. Besides, the Cmax in data set [2] (mouse, plasma, IG 10 mg/kg / IV 1 mg/kg study, read-out: Peak concentration Cmax) is 6520 ng/mL.

`CC(C)Cc1nn(-c2cc[nH]n2)c2nc(N3CCOC[C@H]3C)cc(N=S(C)(C)=O)c12` [Compound 21] yielded an IC50 in the data set with TMD-8 cells (setting [3]) of at most 200 nM.

`C[C@@H]1COCCN1c1cc(N=S(C)(C)=O)c2c(C3CC3)nn(-c3ccn[nH]3)c2n1` [Compound 22] showed a concentration for half-maximal inhibition (IC50) in the data set with TMD-8 cells (setting [3]) of at most 200 nM.

`C[C@@H]1COCCN1c1cc(N=S(C)(C)=O)c2c(C(F)(F)F)nn(-c3ccn[nH]3)c2n1` [Compound 23] had an IC50 with TMD-8 cells (setting [3]) of at most 200 nM.

Compound `C[C@@H]1COCCN1c1cc(N=S(C)(C)=O)c2c(CCC(F)(F)F)nn(-c3ccn[nH]3)c2n1` [Compound 24] came in with a half-maximal inhibitory concentration (IC50) in the data set with TMD-8 cells (setting [3]) of at most 200 nM.

For `C[C@@H]1COCCN1c1cc(N=S(C)(C)=O)c2c(C(C)(C)C)nn(-c3cc[nH]n3)c2n1` [Compound 25], the half-maximal inhibitory concentration (IC50) in the data set on TMD-8 cells (setting [3]) was at most 200 nM.

`C[C@@H]1COCCN1c1cc(N=S(C)(C)=O)c2c(C#CC3CC3)nn(-c3cc[nH]n3)c2n1` [Compound 26] displayed a 50% inhibitory concentration (IC50) in the data set on TMD-8 cells (setting [3]) of at most 200 nM.

Broadly, the IC50 is the concentration that inhibits the measured activity by half. Low readings indicate greater potency, high ones weaker potency. The term bioavailability denotes dose-corrected exposure relative to a reference, in per cent. The term Vd denotes a proportionality between amount in the body and measured concentration, not a real space.
